Results on one compound are retold here after ChEMBL document CHEMBL5143734, “Seco-Lupane Triterpene Derivatives Induce Ferroptosis through GPX4/ACSL4 Axis and Target Cyclin D1 to Block the Cell Cycle” (J Med Chem, 2022).

Each structure is given as a SMILES string. Active and inactive are the calls of the source. The rule behind the calls is not given here.

Test [1] relates to HepG2. The test can be described thus: Antiproliferative activity against human HepG2 cells at 0.125 to 2 uM by Edu staining based fluorescence microscopy assay. Format: functional, cell-based. Particulars: dose 0.125-2 µM, time 24-48 hrs, TDE = time-dependent effect.
Test [2] relates to HepG2. The test can be described thus: Induction of cell cycle arrest in human HepG2 cells assessed as decrease in cells at S phase at 0.5 to 2 uM. Format: functional, cell-based. Particulars: dose 0.5-2 µM.
The subject of test [3] is HepG2. Put plainly: Downregulation of Cyclin D1 mRNA expression in human HepG2 cells at 0.5 to 2.0 uM by RT-qPCR analysis. Format: functional, cell-based. Particulars: dose 0.5-2 µM, time 6-36 hrs, TDE = time-dependent effect. A general note: Real-time PCR tracks product formation cycle by cycle.
Test [4] concerns HepG2. Put plainly: Downregulation of Cyclin D1 protein expression in human HepG2 cells measured at 2 uM by Western blot analysis. Format: functional, cell-based. Particulars: time 6-36 hrs, TDE = time-dependent effect. A general note: In western blotting, separated proteins are transferred to a membrane and probed.
A further test relates to PANC-1. Put plainly: Cytotoxicity against human PANC-1 cells assessed as reduction in cell viability by CCK-8 assay. It counts as functional, cell-based.
The test system of test [5] is HepG2. Put plainly: Induction of ferroptosis in human HepG2 cells assessed as log2 fold increase in ACSL4 mRNA expression by qRT-PCR analysis. Format: functional.
In test [6] the test system is HepG2. Put plainly: Antiinvasive activity in human HepG2 cells assessed as inhibition of cell invasion measured after 24 hrs by crystal violet staining based transwell assay. It counts as functional. Particulars: dose 0.125-0.5 µM, DDE = dose-dependent effect.
Test [7] has as its system HepG2. Put plainly: Induction of ferroptosis in human HepG2 cells assessed as upregulation of ACSL4 mRNA expression by measuring fragments per kilo base of exon per million mapped fragments […] (reference value: 75.85 to 97.44). Format: functional.
Test [8] concerns HepG2. Put plainly: Antiproliferative activity against human HepG2 cells incubated for 24 to 48 hrs by Edu staining based fluorescence microscopy assay. Format: functional, cell-based. Conditions: dose 0.125-2 µM, time 24-48 hrs, DDE = dose-dependent effect.
The subject of test [9] is HepG2. Put plainly: Cytotoxicity against human HepG2 cells assessed as reduction in cell viability by CCK-8 assay. It counts as functional, cell-based. On the technique in general: Formazan colour is commonly taken as a measure of viable cells.
In test [10] the test system is HepG2. Put plainly: Antiproliferative activity against human HepG2 cells at 0.125 to 0.5 uM incubated for 48 hrs. Format: functional, cell-based. Particulars: dose 0.125-0.5 µM.

Take `C=C(C)[C@@H]1CC[C@]2(C(=O)OCCCCCn3cc(CCN)c4ccccc43)CC[C@]3(C)[C@H](C[C@H]4OC(=O)C[C@@H](O)[C@]5(C)[C@@H]4[C@@]3(C)CC[C@H]5C(=C)C)[C@@H]12`: the Activity result in the test on HepG2 [1] is “Tde”; with HepG2 [3], “Tde”; in the test with HepG2 [4], “Tde”; in the test on HepG2 [6] it was “Dde”; in the test on HepG2 [7] it was 132.19; with HepG2 [8], “Dde”. Moreover, the result with HepG2 [2] and in the test with HepG2 [10] was Active. Further, the IC50 (in general, the concentration at which inhibition is half-maximal) with PANC-1 turned out to be 5.5 µM; in the test on HepG2 [9] it was 0.97 µM. In addition, in the test with HepG2 [5], the log2FC is reported as 0.83.
